Here are results for 23 compounds from patent publication US11306078B2, “Piperidine CXCR7 receptor modulators” (IDORSIA PHARMACEUTICALS LTD., priority 2016, dated 2022).

The IC50 is the midpoint of a concentration-inhibition curve. A high value points to weaker potency.

Sequence of human chemokine receptor CXCR7 (P25106 whole entry): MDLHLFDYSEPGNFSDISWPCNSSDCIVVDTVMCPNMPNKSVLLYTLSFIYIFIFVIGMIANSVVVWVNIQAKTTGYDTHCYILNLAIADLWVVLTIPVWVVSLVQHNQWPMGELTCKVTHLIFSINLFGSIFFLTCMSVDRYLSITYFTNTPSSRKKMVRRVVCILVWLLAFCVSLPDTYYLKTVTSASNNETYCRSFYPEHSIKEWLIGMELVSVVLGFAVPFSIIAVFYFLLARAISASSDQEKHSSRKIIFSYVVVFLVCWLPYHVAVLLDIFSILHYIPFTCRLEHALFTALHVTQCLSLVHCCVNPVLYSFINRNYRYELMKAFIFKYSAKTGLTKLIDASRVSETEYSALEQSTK

This test addresses human chemokine receptor CXCR7 (Homo sapiens (Human), UniProt P25106). Briefly: Tango CXCR7-bla U2OS beta-arrestin recruitment assay (beta-lactamase reporter, FRET), antagonism of CXCL12/SDF1-α.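 Note: compounds preincubated 15 min before CXCL12 addition, then 22 h at 37 °C, FRET emission ratio read with CCF4-AM substrate after 2 h.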 The format is cell-based. The note with it: antagonistic effect on CXCR7; Tango CXCR7-bla U2OS cells, CXCL12/SDF1-α at its EC80. On the technique in general: Arrestin recruitment assays detect the binding of arrestin to an activated receptor.
Consider `C[C@@H](NC(=O)[C@@H]1CN(C2CCCCC2)CC[C@H]1NC(=O)c1cc(-c2c(F)cc(F)cc2F)on1)c1ccccn1` (racemic) [Example 1.121, (3R*,4R*)-1-Cyclohexyl-4-{[5-(2,4,6-trifluoro-phenyl)-isoxazole-3-carbonyl]-amino}-piperidine-3-carboxylic acid ((R)-1-pyridin-2-yl-ethyl)-amide], for which the midpoint of inhibition, the IC50, lay at 4 nM. `CC(C)N(CCOCCO)C(=O)[C@@H]1CN(C2CCCCC2)CC[C@H]1NC(=O)c1cc(-c2ccc(F)cc2F)on1` (racemic) [Example 1.055, rac-(3R*,4R*)-1-Cyclohexyl-4-{[5-(2,4-difluoro-phenyl)-isoxazole-3-carbonyl]-amino}-piperidine-3-carboxylic acid [2-(2-hydroxy-ethoxy)-ethyl]-isopropyl-amide] showed an IC50 of 232 nM. Regarding `C[C@@H](NC(=O)[C@@H]1CN(CC2CC2)CC[C@H]1NC(=O)c1cc(-c2c(F)cc(F)cc2F)on1)C1CCC1` (relative stereo) [Example 1.139, (3R*,4R*)-1-Cyclopropylmethyl-4-{[5-(2,4,6-trifluoro-phenyl)-isoxazole-3-carbonyl]-amino}-piperidine-3-carboxylic acid ((R)-1-cyclobutyl-ethyl)-amide], the IC50 came out at 50 nM. `O=C(N[C@@H]1CCN(C2CCCCC2)C[C@H]1C(=O)N1CC(F)C1)c1cc(-c2ccc(F)cc2F)on1` (racemic) [Example 1.036, rac-5-(2,4-Difluoro-phenyl)-isoxazole-3-carboxylic acid [(3R*,4R*)-1-cyclohexyl-3-(3-fluoro-azetidine-1-carbonyl)-piperidin-4-yl]-amide] came in with an IC50 of 693 nM.

For `O=C(N[C@@H]1CCN(CC2CC2)C[C@H]1C(=O)NC1(c2ccccn2)CC1)c1cc(-c2c(F)cc(F)cc2F)on1` (single isomer, unassigned) [Example 1.171a, (3R*,4R*)-1-Cyclopropylmethyl-4-{[5-(2,4,6-trifluoro-phenyl)-isoxazole-3-carbonyl]-amino}-piperidine-3-carboxylic acid (1-pyridin-2-yl-cyclopropyl)-amide], the IC50 stood at 7 nM.

Compound `CC(NC(=O)[C@H]1CN(C2CCCC2)CC[C@@H]1NC(=O)c1cc(-c2ccc(F)cc2F)on1)c1nc[nH]n1` (some centres unmarked) [Example 4.038] yielded an IC50 of 522 nM. `O=C(N[C@H]1CCN(CC2CC2)C[C@@H]1C(=O)NC1(c2ccccc2F)CC1)c1cc(-c2ccc(F)cc2F)on1` [Example 4.061] registered an IC50 of 1 nM. As for `CN(C)C(=O)[C@@H]1CN(C2CCCCC2)CC[C@H]1NC(=O)c1nnc(-c2ccc(F)cc2F)o1` (single isomer, unassigned) [Example 3.003b, (3R*,4R*)-1-Cyclohexyl-4-{[5-(2,4-difluoro-phenyl)-[1,3,4]oxadiazole-2-carbonyl]-amino}-piperidine-3-carboxylic acid dimethylamide], the figure is 54 nM; as for “(3R*,4R*)-1-Cyclopropylmethyl-4-{[3-(2,4-difluoro-phenyl)-isoxazole-5-carbonyl]-amino}-piperidine-3-carboxylic acid ((1S*,2R*)-2-phenyl-cyclopropyl)-amide and (3R*,4R*)-1-Cyclopropylmethyl-4-{[3-(2,4-difluoro-phenyl)-isoxazole-5-carbonyl]-amino}-piperidine-3-carboxylic acid ((1R*,2S*)-2-phenyl-cyclopropyl)-amide [Example 1.164]”, 267 nM. As for `O=C(N[C@H]1CCN(CC2CC2)C[C@@H]1C(=O)N1CC[C@@H]1c1ncccn1)c1cc(-c2ccc(F)cc2F)on1` [Example 4.079a], the figure is 186 nM; as for `Cc1cc(CNC(=O)[C@@H]2CN(C3CCCCC3)CC[C@H]2NC(=O)c2cc(-c3ccc(F)cc3F)on2)on1` (racemic) [Example 1.029, rac-(3R*,4R*)-1-Cyclohexyl-4-{[5-(2,4-difluoro-phenyl)-isoxazole-3-carbonyl]-amino}-piperidine-3-carboxylic acid (3-methyl-isoxazol-5-ylmethyl)-amide], 315 nM; as for `CC(C)(CO)NC(=O)[C@@H]1CN(C2CCCCC2)CC[C@H]1NC(=O)c1cc(-c2ccc(F)cc2F)on1` (racemic) [Example 1.088, rac-(3R*,4R*)-1-Cyclohexyl-4-{[5-(2,4-difluoro-phenyl)-isoxazole-3-carbonyl]-amino}-piperidine-3-carboxylic acid (2-hydroxy-1,1-dimethyl-ethyl)-amide], 244 nM. As for `CC(CF)NC(=O)[C@@H]1CN(C2CCCCC2)CC[C@H]1NC(=O)c1cc(-c2ccc(F)cc2F)on1` (relative stereo) [Example 1.082, (3R*,4R*)-1-Cyclohexyl-4-{[5-(2,4-difluoro-phenyl)-isoxazole-3-carbonyl]-amino}-piperidine-3-carboxylic acid ((1RS)-2-fluoro-1-methyl-ethyl)-amide], the figure is 445 nM; as for `O=C(N[C@H]1CCN(C2CSC2)C[C@@H]1C(=O)NC1(c2ncccn2)CC1)c1cc(-c2ccc(F)cc2F)on1` [Example 2.102], 411 nM. `O=C(N[C@H]1CCN(C2CC3(CC3)C2)C[C@@H]1C(=O)NC1(c2ncccn2)CC1)c1cc(-c2ccc(F)cc2F)on1` [Example 2.103]: it took 4 nM to reach half-maximal inhibition (IC50).

On to `CC(C)(NC(=O)[C@H]1CN(CC2CC2)CC[C@@H]1NC(=O)c1cc(-c2ccc(F)cc2F)on1)c1ccccn1` [Example 4.033], for which half-maximal inhibition (IC50) was put at 0.3 nM.

The compound `C[C@@H](NC(=O)[C@@H]1CN(CC2CC2)CC[C@H]1NC(=O)c1cn(-c2ccc(F)cc2F)nn1)c1ccccn1` (relative stereo) [Example 1.119, (3R*,4R*)-1-Cyclopropylmethyl-4-{[1-(2,4-difluoro-phenyl)-1H-[1,2,3]triazole-4-carbonyl]-amino}-piperidine-3-carboxylic acid ((R)-1-pyridin-2-yl-ethyl)-amide] gave an IC50 of 146 nM.

On to `O=C(N[C@H]1CCN(CC2CC2)C[C@@H]1C(=O)NC1(c2nccc[n+]2[O-])CC1)c1cc(-c2ccc(F)cc2F)on1` [Example 4.077], for which 4 nM corresponded to half-maximal inhibition (IC50). With `O=C(N[C@H]1CCN(CC2CCCC2)C[C@@H]1C(=O)NC1(c2ncccn2)CC1)c1cc(-c2ccc(F)cc2F)on1` [Example 2.065], the IC50 came out at 1 nM. The result for `O=C(NC1CCN(C2CCCC2)CC1C(=O)NC1(c2cccc[n+]2[O-])CC1)c1cc(-c2ccc(F)cc2F)on1` (centres unmarked) [Example 2.062] reads 23 nM; that for `CC(C)CNC(=O)[C@@H]1CN(C2CCCCC2)CC[C@H]1NC(=O)c1cc(-c2ccc(F)cc2F)on1` (racemic) [Example 1.007, rac-(3R*,4R*)-1-Cyclohexyl-4-{[5-(2,4-difluoro-phenyl)-isoxazole-3-carbonyl]-amino}-piperidine-3-carboxylic acid isobutyl-amide], 780 nM; that for `COCC(C)(C)NC(=O)[C@@H]1CN(CC2CC2)CC[C@H]1NC(=O)c1cc(-c2ccc(F)cc2F)no1` (racemic) [Example 1.151, rac-(3R*,4R*)-1-Cyclopropylmethyl-4-{[3-(2,4-difluoro-phenyl)-isoxazole-5-carbonyl]-amino}-piperidine-3-carboxylic acid (2-methoxy-1,1-dimethyl-ethyl)-amide], 554 nM. On to `CC(C)(C)N1CC[C@H](NC(=O)c2cc(-c3ccc(F)cc3F)on2)[C@@H](C(=O)NC2(c3ncccn3)CC2)C1` [Example 4.101b], for which the IC50 turned out to be 712 nM.
